US11638427B2, “Methods and compositions for altering secondary metabolites in plants” (Impello Biosciences, Inc, priority 2020, dated 2023)

Columns and labels:
[1] = test system: hemp plants Cv. Zephyr; assay: Weekly MDJ foliar spray at four concentrations, cannabinoids and terpenes; format: in vivo, Cannabis spp.
Description: To investigate the effect of different concentrations of MDJ, four different concentrations of MDJ was applied to hemp plants (n=5 per treatment, Cv.: Zephyr, CBDRx) weekly via foliar spray at the following concentrations: 1 mM, 4.25 mM, 7.5 mM, 10 mM. Treatment concentrations were prepared as described above and one drop of TWEEN®-20 (VWR, CAS No.: 9005-64-5) was added to treatments to serve as a surfactant. Treatments were applied weekly during both the vegetative (2 treatments) and flowering (6 treatments) developmental stages using a SPRAYMASTER Chemical Sprayer (King of Prussia, Pa.) (8 treatments total). Plants were grown under a total of 12 Boost (Thrive Agritech, NY) 130-watt LED lights set to 18L: 6D photoperiod during the vegetative phase (2 weeks) followed by a 12L: 12D photoperiod during the flowering phase (6 weeks), using the same lighting. Untreated controls served as a comparison to see alterations in metabolite synthesis.

[2] = test system: Colletotrichum gloeosporioides; assay: Mold growth on jasmonate-infused plates, mold 1 isolated from avocado; format: cell-based; conditions: various concentrations in plates
Description: (§1) MDJ (TCI, CAS No.: 24851-98-7) and CJ were infused into potato dextrose agar (PDA, VWR Cat No.: 90003-494) petri dishes (100×15 mm VWR, Cat No: 25384-094) at concentrations ranging from 1 mM, 4.25 mM, and 10 mM. Each treatment was prepared using a technical grade stock solution of pure chemical (CJ or MDJ) diluted with TWEEN®-20 (VWR, CAS No.: […]). Culturable oyster mushroom and seedling mold served to create fungal mycelial plugs using a sterile 1 mL pipette tip (Eppendorf, Cat No.: 022491458) held upside down. The tips were used to make circle excisions (i.e., fungal plugs) from a mycelial mat grown on PDA with no biochemical infusions. Fungal pugs were then transferred to PDA infused with varying concentrations of CJ or MDJ, and control plates (no CJ or MDJ infusion) to monitor fungal growth at room temperature over time.
(§2) Based on the above results in Cannabis spp., additional fungi from various crops was sampled and tested. Plates comprising various concentrations of MDJ or MJ were prepared as described above.

[3] = test system: Nectria pseudotrichia; assay: Mold growth on jasmonate-infused plates, mold 2 isolated from avocado; format: cell-based; conditions: various concentrations in plates
Description: as §1, §2

[4] = test system: Botrytis spp.; assay: Mold growth on jasmonate-infused plates, mold isolated from strawberry; format: cell-based; conditions: 1 mM, 5 mM, 10 mM, or 20 mM in plates
Description: as §1, §2

[5] = test system: Penicillium spp.; assay: Mold growth on jasmonate-infused plates, mold isolated from pineapple; format: cell-based; conditions: 5 mM, 10 mM, or 20 mM in plates
Description: as §1, §2

[6] = test system: pineapples; assay: Fruit MDJ spray till drip, 2 weeks observation; format: in vivo
Description: For fruit MDJ dips, all fruits were purchased from a local market as certified organic on 4/13/2021. Before any treatments, all fruits were submerged in boiling water to melt off any non-natural waxy coating then dried with a washcloth. Once fruits were clean and dry, they were submerged in varying concentrations of methyl dihydrojasmonate solutions. Each solution was prepared from a 1M MDJ Tween 20 stock solution diluted with RO water. 500 ml of each solution was prepared and reused for the different fruits. Each fruit was submerged for 20 seconds and then left to dry on a paper towel. After the fruits were dry the paper towels were removed and fruits left on the lab bench at room temperature grouped by treatment but not touching and monitored for visual differences for 2 weeks. The pineapple was the only fruit that was not fully submerged but instead sprayed till drip with the varying concentration of MDJ/Tween 20 solution. Then left to dry and monitored the same as the other fruits.
Treatments and Sample Sizes:
Control, water—4 lemons, 2 oranges, 1 pineapple, 1 mango, 4 strawberries, 2 grapes (˜10 grapes/bundle), 2 oranges, 4 avocados […]
Qualitative observations like color changes, firmness, mold appearance were monitored and at the end of the two weeks all fruits were cut in half to record and further observations. Penetrometer readings were recorded in the last week of observations.

[7] = test system: Fusarium ventricosum; assay: MDJ spray on cannabis 'Jack Herer' plants infected with Fusarium ventricosum; format: in vivo
Description: To investigate the efficacy of MDJ at inhibiting Fusarium ventricosum, plants of the cannabis variety ‘Jack Herer’ were infected and treated with either 1 mM or 10 mM MDJ. Briefly, after two weeks in vegetative light cycle, ‘Jack Herer’ plants were moved to flowering cycle and sprayed with 1 mM or 10 mM methyl dihydrojasmonate on 4/12/21. After 72 hours (4/15/21) all plants were infected with Fusarium ventricosum cultured on potato dextrose agar. Plants were infected using a fungal pick to inoculate the fungal culture at the stem of the plant. No visual signs of infection were observed after two weeks, so all plants were reinfected using a PDA and liquid culture of F. ventricosum on 4/28/21 and again on 5/14/21. Plants were harvested and hung to dry on 6/11/21 and dry weights recorded on 6/16/21. After harvest, stem tissue was taken from each treatment group and plated onto potato dextrose agar. Fusarium ventricosum was reisolated from each group.

[8] = all tested concentrations (1, 4.25, 7.5, 10 mM) weekly foliar spray vs untreated controls

With `CCCCCC1C(=O)CCC1CC(=O)OC` (centres unmarked) [MDJ, methyl dihydrojasmonate] the CBDA [1, 8] was “significantly increased”, the CBGA [1, 8] was “significantly increased” and the THCA [1, 8] was “significantly increased”. For the same compound, the “Total CBD” value [1, 8] was “significantly increased”, the “Total CBG” value [1, 8] was “significantly increased” and the Total cannabinoids [1, 8] was “significantly increased”. For the same compound, the several terpenes ([1]; weekly foliar spray 1-10 mM) was “altered”, the CBL ([1]; weekly foliar spray, CBL not detected at all in the control samples) was “detectable levels” and the “growth of mold isolated from avocado (mold 1)” value [2] was “effective at preventing the growth”. For the same compound, the “growth of mold isolated from avocado (mold 2)” value [3] was “effective at preventing the growth”, the “growth of mold isolated from strawberry” value [4] was “effective at preventing the growth” and the “growth of mold isolated from pineapple” value [5] was “effective at preventing the growth”. For the same compound, the crown appearance ([6]; spray till drip 20 mM, control had the greenest crown, followed by 5 mM) was “most dried out crown”, the “mold at the base of the pineapple” value ([6]; spray till drip, control, 5 mM and 20 mM groups, one pineapple per group) was “showed some mold” and the “flowers compared to the control” value ([7]; 1 mM and 10 mM spray) was “larger flowers”. The “leaves compared to the control” value ([7]; 1 mM and 10 mM spray) was “more yellow, wilting leaves” and the “plant biomass (dry weight) compared to the control group” value ([7]; 1 mM and 10 mM spray 72 hours before infection) was “prevention in biomass reduction”.
